Measurements: patent US9801960B2, “Probe for a biological specimen and labelling method and screening method using the probe” (CANON KABUSHIKI KAISHA, priority 2008, dated 2017)

Columns and labels:
[1] = tested on: Zebrafish juveniles; experiment: In vivo labelling of Zebrafish juveniles with probe for biological specimen; parameters: key to Staining property: +++: stained; −: no stained; key to Fluorescence sensitivity: +++: strongly observed; ++: moderately observed; +: weakly observed; −: no stained; conditions: 1 hour; for Fluorescence sensitivity / Staining property: 10 ng/mL; for Fluorescence sensitivity: fluorescence intensity visually evaluated; for Staining property: visually evaluated; for Site(s) to be labelled: 10 ng/mL in water, stereoscopic microscope
Outline: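 Five zebrafish juveniles were immersed in distilled water containing staining compound at 10 ng/mL (DMSO solution) for 1 hour. They were then washed three times with Egg Water, immobilised in 3% methylcellulose and imaged by stereomicroscope. Staining and fluorescence intensity were scored visually on a +++ to − scale.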

[2] = Excitation and fluorescence emission wavelength measurement; assay type: physicochemical; parameters: Stokes shift (λem − λex): unit not given here; conditions: aqueous solution: 10 mg/mL solution in DMSO diluted 500-fold with purified water
Method: It should be noted that the excitation wavelength and the fluorescence emission wavelength of the staining compound were determined by measuring an aqueous solution, which had been obtained by diluting 500-fold a 10 mg/mL solution of the staining compound in DMSO with purified water, with a fluorescence spectrophotometer FL 4500 manufactured by Hitachi High-Technologies Corporation.

[3] = tested on: Zebrafish liver section; experiment: Ex vivo labelling: tissue section of stained Zebrafish; parameters: key to Staining property: +++: stained; −: no stained; key to Fluorescence sensitivity: +++: strongly observed; ++: moderately observed; +: weakly observed; −: no stained; conditions: 50 μm, fish stained as in Example 5, PFA fixed
Method: Zebrafish which had been stained by the operation in Example 5 was taken out and fixed with a 4% solution of paraformaldehyde (PFA) in PBS. After that, a tissue section having a thickness of 50 μm was prepared with a linear slicer PRO7 (manufactured by Dosaka EM Co., Ltd.) (Table 3). The section was collected on an MAS-coated slide glass (manufactured by Matsunami Glass Ind., Ltd.), mounted with Fluoromount G (manufactured by Southern Biotechnology), and then covered with a cover glass.

[4] = Storage stability of staining compound solution in DMSO; assay type: physicochemical; conditions: 10 ng/mL in DMSO, closed glass container, normal temperature, 1 month; rate of change of absorbance and fluorescence intensity
Outline: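 Compounds held as 10 ng/mL DMSO solutions in closed glass containers at normal temperature for 1 month. Rates of change in absorbance and fluorescence intensity at a given wavelength versus start were scored: +++ <5%, ++ 5–15%, − >15%.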

[5] = tested on: human small intestine section; experiment: In vitro labelling of human frozen tissue section slide; assay type: cell-based; parameters: key to Staining property: +++: stained; −: no stained; key to Fluorescence sensitivity: +++: strongly observed; ++: moderately observed; +: weakly observed; −: no stained; conditions: 10 ng/mL aqueous solution, 1 hour
Method: (§1) A human frozen tissue section slide (manufactured by BioChain Institute, Inc.) shown in Table 3 was immersed in a 10 ng/mL aqueous solution of each of the staining compounds shown in Table 3 for 1 hour. Next, the slide was washed three times with PBS for 10 minutes, mounted with Fluoromount G (manufactured by Southern Biotechnology), and then covered with a cover glass.

[6] = tested on: human liver tumor section; experiment: as above; assay type: cell-based; parameters: key to Staining property: +++: stained; −: no stained; key to Fluorescence sensitivity: +++: strongly observed; ++: moderately observed; +: weakly observed; −: no stained; conditions: 10 ng/mL aqueous solution, 1 hour
Method: as §1

| SMILES | Fluorescence sensitivity [1] | Staining property [1] | Excitation wavelength λex [2] | Fluorescence emission wavelength λem [2] | Stokes shift (λem − λex) [2] | Fluorescence sensitivity [3] | Staining property [3] | Storage stability [4] | Site(s) to be labelled [1] | Fluorescence sensitivity [5] | Staining property [5] | Fluorescence sensitivity [6] | Staining property [6] |
| --- | --- | --- | --- | --- | --- | --- | --- | --- | --- | --- | --- | --- | --- |
| COc1ccc2cc(N3c4ccc(/C=C(\C#N)C(=O)O)cc4C4CCCC43)ccc2c1 (centres unmarked) [Dye 6] | +++ | +++ | 474 nm | 610 nm | 136 | +++ | +++ | +++ (rates of change of the absorbance and the fluorescence intensity are less than 5%, and thus, the storage stability is highly excellent) | – | – | – | – | – |
| CCN1C(=O)/C(=c2\s/c(=C/c3ccc4c(c3)C3CCCC3N4c3ccc(SC)cc3)c(=O)n2CC(=O)O)SC1=S (centres unmarked) [Dye 18] | +++ | +++ | 570 nm | 699 nm | 129 | – | – | +++ (rates of change of the absorbance and the fluorescence intensity are less than 5%, and thus, the storage stability is highly excellent) | blood vessel, gallbladder, and gastrointestinal | +++ | +++ | – | – |
| O=C(O)C[n+]1c(/C=C/c2cc(Br)c3c(c2)C2CCCC2N3c2ccccc2)sc2ccccc21 (centres unmarked) [Dye 23] | +++ | +++ | 545 nm | 636 nm | 91 | – | – | +++ (rates of change of the absorbance and the fluorescence intensity are less than 5%, and thus, the storage stability is highly excellent) | nose | – | – | +++ | +++ |
| O=C1/C(=C/c2ccc3c(c2)C2CCCC2N3c2ccccc2)Oc2ccc(I)cc21 (centres unmarked) [Dye 141] | +++ | +++ | 380 nm | 490 nm | 110 | – | – | +++ (rates of change of the absorbance and the fluorescence intensity are less than 5%, and thus, the storage stability is highly excellent) | gastrointestinal tract | – | – | – | – |
| COc1ccc(N2c3ccc(/C=C4\Oc5ccc(I)cc5C4=O)cc3C3CCCC32)cc1 (centres unmarked) [Dye 142] | +++ | +++ | 530 nm | 680 nm | 150 | – | – | +++ (rates of change of the absorbance and the fluorescence intensity are less than 5%, and thus, the storage stability is highly excellent) | gastrointestinal tract | – | – | – | – |
| CC1(C)C(/C=C/C=C/C=C/C=C2\N(CCCCS(=O)(=O)O)c3ccc4ccccc4c3C2(C)C)=[N+](CCCCS(=O)(=O)[O-])c2ccc3ccccc3c21 [ICG, indocyanine green, reference compound] | + | +++ | 784 nm | 811 nm | 27 | – | – | − (rates of change of the absorbance and fluorescence intensity are more than 15%, and thus, the storage stability is poor) | liver | – | – | – | – |
